Source: US5612319A, “Postexposure prevention of HIV infection or seroconversion” (Medivir AB, priority 1994, dated 1997)
In brackets after ≈: the same amount, converted by molar mass.

Experiments:
[1] = test system: lentivirus infections with HIV or SIV; conditions: administered prophylactically, prior to exposure to HIV or SIV; cited from earlier work
HIV [2] = conditions: rapid and sustained postexposure administration of large doses; cited from earlier work
HIV-1, HIV-2 or SIV = conditions: until shortly after "treatment" is concluded; cited from earlier work
HIV [3] = conditions: HIV-infected individuals; cited from earlier work
SIV [4] = conditions: prophylactically, i.e. pre-exposure administered; cited from earlier work
MT4 cells = assay: Cell culture tolerance in MT4 cells; assay type: cell-based, human; conditions: cell culture results
[5] = Cell culture tolerance in MT4 cells; assay type: cell-based, human; conditions: human; cell culture, MT4 cells; read-out: ID50 in MT4 cells
SIV [6] = assay: Postexposure prevention of SIV infection in macaque monkeys (Example 2, Table 1); assay type: in vivo; conditions: for Detected during 30 days post virus inoculation: SIV Ag / Detected during 30 days post virus inoculation: SIV-2 / SIV antibody detected during 30 days post inoculation: 10 mg/kg s.c. three times per day
Protocol: Inoculation: The control and test animals, 2 year old macaque monkeys were inoculated […] with either a moderate (10 monkey infectious doses MID50, as determined by Bottiger et al Antiviral Chemistry and Chemotherapy 1992;3:269-271) or a high (100 MID50) dose preparation of SIV in phosphate buffer, as listed in Table 1 below.
One or three hours after i.v. inoculation with SIV, paired test animals were injected subcutaneously with 10 mg/kg of the preparation of Example 1, repeated three times per day for 1 day or 3 days as listed in table 1. Blood samples were extracted from the test and control animals on days 0, 17, 23 and 30 for determination of SIV antibody, SIV p26 antigen and presence of infective virus. The methods have been described by Bottiger et al, AIDS Res Hum Retroviruses 1992;7:1235-1238.

[7] = In vivo simian experiments, short term toxicity; conditions: 30 mg/kg/day
SIV [8] = conditions: administered from 8 hours prior to virus inoculation; cited from earlier work
[9] = 10 MID50, treatment start 1 hour post inoculation, duration 1 day, monkeys 45, 46
[10] = 10 MID50, treatment start 1 hour post inoculation, duration 3 days, monkeys 48, 49
[11] = 10 MID50, treatment start 3 hours post inoculation, duration 3 days, monkeys 54, 57
[12] = 100 MID50, treatment start 1 hour post inoculation, duration 3 days, monkeys 53, 58

## Cc1cn([C@H]2C[C@H](N=[N+]=[N-])[C@@H](CO)O2)c(=O)[nH]c1=O [AZT, zidovudine]
[1]
  effect on pattern of lentivirus infections: may alter the pattern of lentivirus infections
HIV [2]
  published accounts of seroconversion after accidental exposure to HIV: 13 published accounts
HIV-1, HIV-2 or SIV
  delay of seroconversion: at most appear to delay seroconversion
HIV [3]
  suppression of AIDS development or reducing viral loads: clinically significant action
SIV [4]
  prevention of infection with SIV: inability to prevent infection with SIV

## Nc1ccn([C@H]2C[C@H](CO)[C@@H](CO)O2)c(=O)n1 [Example 1, 1-[2',3'-dideoxy-3'-C-(hydroxymethyl)-β-D-erythro-pentofuranosyl]-cytosine]
MT4 cells
  tolerance by human cells: generally well tolerated
[5]
  CC50: ~45 µg/mL (≈ 187 µM)
SIV [6]; [9]
  Detected during 30 days post virus inoculation: SIV Ag: -
  Detected during 30 days post virus inoculation: SIV-2: -
  SIV antibody detected during 30 days post inoculation: -
SIV [6]; [10]
  Detected during 30 days post virus inoculation: SIV Ag: -
  Detected during 30 days post virus inoculation: SIV-2: -
  SIV antibody detected during 30 days post inoculation: -
SIV [6]; [11]
  Detected during 30 days post virus inoculation: SIV Ag: -
  Detected during 30 days post virus inoculation: SIV-2: -
  SIV antibody detected during 30 days post inoculation: -
SIV [6]; [12]
  Detected during 30 days post virus inoculation: SIV Ag: -
  Detected during 30 days post virus inoculation: SIV-2: -
  SIV antibody detected during 30 days post inoculation: -
SIV [6]; 3 days treatment, 100 infectious doses, animals 53 and 58
  protection from 100 infectious doses of SIV: protected the test animals from the very high dose of 100 infectious doses of SIV
SIV [6]; all test animals, viral antigen, antibody or virus culture in blood
  prevention of infection establishing itself in the test animals: prevented the infection establishing itself in the test animals
SIV [6]; each test animal, 30 day period monitored
  SIV antibody or SIV antigen in test animals: free from detectable SIV antibody or SIV antigen
SIV [6]; each test animal, day 30
  infectious virus cultivated from blood samples: infectious virus could not be cultivated
SIV [6]; single day of treatment, 10 infectious doses
  protection from 10 infectious doses of SIV: protected the test animals from 10 infectious doses of SIV
[7]
  toxicity short term in simian experiments: no detectable toxicity

## Cc1cn([C@H]2C[C@H](F)[C@@H](CO)O2)c(=O)[nH]c1=O [FLT, 3'-fluorothymidine]
SIV [8]
  protection against SIV: may provide some protection against SIV

## O=C(O)P(=O)(O)O [PFA]
SIV [4]
  prevention of infection with SIV: inability to prevent infection with SIV

## Cc1cn([C@H]2C=C[C@@H](CO)O2)c(=O)[nH]c1=O [d4T]
SIV [4]
  prevention of infection with SIV: inability to prevent infection with SIV

## Nc1ccn([C@H]2CC[C@@H](CO)O2)c(=O)n1 [ddC]
SIV [4]
  prevention of infection with SIV: inability to prevent infection with SIV
